The values below come from patent publication US10774051B2, “6-membered heterocyclic derivatives and pharmaceutical composition comprising the same” (Shionogi & Co., Ltd., priority 2015, dated 2020).

The target of the first assay is human P2X7 receptor (Homo sapiens, UniProt Q99572, R270H/Y155H). The assay can be described thus: Evaluation of human P2X7 receptor inhibitory activity (Yo-Pro uptake, BzATP stimulation, FLIPR TETRA). The class given is cell-based. Particulars: 1321N1 cells stably expressing human P2X7 receptor; BzATP stimulation, Yo-Pro uptake; read-out: IC50 (antagonistic activity for the human P2X7 receptor). Put shortly: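 1321N1 cells stably expressing human P2X7 (T606C/G952A SNP variant), in HBSS buffer pH 7.4-7.5 with Yo-Pro, stimulated with BzATP; compound added 8 min after agonist. Fluorescence followed for 20 min on FLIPR; max-minus-min change gave % inhibition, IC50 by logistic fit.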
On to `Cc1c(Cl)cccc1Nc1nc(=O)c(O)cn1Cc1ccccc1` [Compound I-0203], for which the IC50 amounted to 18 nM.
For `COc1cn(Cc2cc(F)c(F)c(F)c2)c(Oc2cc(-c3ncco3)ccc2C)nc1=O` [Compound I-0942], the concentration for half-maximal inhibition (IC50) amounted to 230 nM.

Still in this assay, the particulars now being: 1321N1 cells stably expressing human P2X7 receptor; BzATP stimulation, Yo-Pro uptake; read-out: IC50 (antagonistic activity for the human P2X7 receptor), class symbol.
On to `CCc1ccccc1Nc1nc(=O)c(F)cn1Cc1ccccc1` [Compound I-0157], for which the IC50 is 10 to 100 nM.
Consider `COc1cn(Cc2ccc(F)c(F)c2)c(Nc2ccc(OC(C)C)cc2C)nc1=O` [Compound I-0530], for which the IC50 lay in the range of 10 to 100 nM.
Same read-out and setting: the result for `CCc1cc(OC)c(OC)cc1Nc1nc(=O)c(OC)cn1Cc1ccc(F)c(F)c1` [Compound I-0272] reads less than 10 nM; that for `COc1cn(Cc2cccc(Cl)c2)c(Nc2cccc(OC(F)F)c2C)nc1=O` [Compound I-0479], 10 to 100 nM.
On the same count and under the same terms, the result for `COc1cn(Cc2ccccc2)c(Nc2cc(-c3nnco3)ccc2C)nc1=O` [Compound I-0240] reads 10 to 100 nM; that for `COc1cn(Cc2ccc(F)c(F)c2)c(Nc2cccc3sccc23)nc1=O` [Compound I-0485], less than 10 nM.
Same read-out and setting: next, `COc1cccc(Nc2nc(=O)c(OC)cn2Cc2cc(F)cc(F)c2)c1C` [Compound I-0438]: less than 10 nM.
Consider `COc1cn(Cc2ccc(F)c(Cl)c2)c(Nc2cccc(OC(F)F)c2C)nc1=O` [Compound I-0511], for which the IC50 was less than 10 nM.
In the case of `CCc1cc(OC)ccc1Nc1nc(=O)c(OC)cn1Cc1ccc(F)c(Cl)c1` [Compound I-0245], the IC50 was less than 10 nM.
Same read-out and setting: next, `COc1cn(Cc2ccccc2)c(Nc2cc(CO)ccc2C)nc1=O` [Compound I-0180]: 10 to 100 nM.
Turning to `COc1cc(C)cc(Nc2nc(=O)c(OC)cn2Cc2ccccc2)c1C` [Compound I-0281], the IC50 was less than 10 nM.
Same read-out and setting: next, `COc1cn(Cc2cc(F)cc(F)c2)c(Nc2cc(OCC(F)(F)F)ccc2C)nc1=O` [Compound I-0496]: 10 to 100 nM.
On to `COc1cn(Cc2ccccc2)c(Nc2cccc(N(C)C)c2C)nc1=O` [Compound I-0217], for which the IC50 was in the range of 10 to 100 nM.
For `COc1cn(Cc2ccccc2)c(N[C@@H]2CCc3ccccc32)nc1=O` [Compound I-0201], the IC50 lay within 500 to 1000 nM.
`COc1cn(Cc2ccccc2Cl)c(Nc2cccc(Cl)c2C)nc1=O` [Compound I-0125]: the 50% inhibitory concentration (IC50) lay within 10 to 100 nM.
On to `COc1cn(Cc2cccc(Cl)c2)c(Nc2cc(C)c(C)cc2C)nc1=O` [Compound I-0165], for which the IC50 is less than 10 nM.
On the same count and under the same terms, next, `CCc1ccccc1Nc1nc(=O)c(Br)cn1Cc1ccccc1` [Compound I-0107]: 100 to 500 nM; `COc1cccc(Nc2nc(=O)c(OC)cn2Cc2cc(F)c(F)c(F)c2)c1C` [Compound I-0572]: less than 10 nM.
As to `COc1cn(Cc2cc(F)c(F)c(F)c2)c(Nc2cc(C)ccc2C)nc1=O` [Compound I-0571], the IC50 was less than 10 nM.

The same assay, now with this note: antagonistic activity for the human P2X7 receptor; read-out: IC50.
As to `CCc1cc2c(cc1Nc1nc(=O)c(OC)cn1Cc1ccc(F)c(Cl)c1)OCO2` [Compound I-0688], the IC50 was less than 10 nM.
The same measure, in the same setting: next, `COc1cn(Cc2cc(F)c(F)c(F)c2)c(Nc2cccc3[nH]c(=O)ccc23)nc1=O` [Compound I-0602]: 100 to 500 nM.
Still for that read-out and setting: next, `COc1cn(Cc2cc(F)cc(F)c2)c(Nc2cccc3[nH]c(C)cc23)nc1=O` [Compound I-0598]: 10 to 100 nM; `COc1cc(Nc2nc(=O)c(OC)cn2Cc2ccc(F)c(F)c2)c(C)cc1F` [Compound I-0779]: less than 10 nM.
Same read-out and setting: next, `COc1cc(Nc2nc(=O)c(OC)cn2Cc2ccccc2)c(C)cc1C` [Compound I-0585]: less than 10 nM; `Cc1nc2cc(C)c(Nc3nc(=NC#N)c(F)cn3Cc3cc(F)c(F)c(F)c3)cc2s1` [Compound I-1286]: less than 10 nM.
Take `C#Cc1cc(Nc2nc(=O)c(OC)cn2Cc2ccc(F)c(Cl)c2)c(C)cc1F` [Compound I-0916]: the half-inhibitory concentration (IC50) fell in the range of 10 to 100 nM.
With `Cc1cc(N2CCOCC2)ccc1Nc1nc(=O)c(C)cn1Cc1cc(F)c(F)c(F)c1` [Compound I-1132], the 50% inhibitory concentration (IC50) was 10 to 100 nM.
On the same count and under the same terms, the result for `COc1cn(Cc2ccc(F)c(Cl)c2)c(Nc2cc(C(F)(F)F)ccc2C)cc1=O` [Compound I-0956] reads 100 to 500 nM; that for `Cc1ccc(-c2ncco2)cc1Nc1nc(=O)c(Cl)cn1Cc1cc(F)cc(F)c1` [Compound I-0854], less than 10 nM; that for `Cc1ccccc1Nc1nc(=O)c(C)cn1Cc1cc(F)c(F)c(F)c1` [Compound I-1098], 10 to 100 nM.
For the compound `COCc1cn(Cc2cc(F)c(F)c(F)c2)c(Nc2cc(Cl)c(OC)cc2C)nc1=O` [Compound I-1146], the IC50 lay in the range of 10 to 100 nM.
Same read-out and setting: next, `COc1cn(Cc2cc(F)cc(F)c2)c(Nc2cc(C)cc3[nH]ccc23)nc1=O` [Compound I-0650]: 10 to 100 nM.
Take `COc1cn(Cc2cc(F)cc(Cl)c2)c(Nc2cc(-c3ccnn3C)ccc2C)nc1=O` [Compound I-0734]: the IC50 is 10 to 100 nM.
For the compound `Cc1cc(Cl)ccc1Nc1nc(=O)c(F)cn1Cc1cc(F)c(F)c(F)c1` [Compound I-1192], the IC50 is less than 10 nM.
Still for that read-out and setting: next, `COc1cn(Cc2cc(F)c(F)c(F)c2)c(Nc2cc3cc[nH]c3cc2C)nc1=O` [Compound I-0938]: less than 10 nM; `COc1cc(C)c(Nc2nc(=O)c(OC)cn2Cc2cc(F)c(F)c(F)c2)cc1F` [Compound I-0804]: less than 10 nM; `COc1ccc(Nc2nc(=O)cnn2Cc2cc(F)cc(F)c2)c(C)c1` [Compound I-1271]: less than 10 nM.
As to `O=c1nc(Nc2cccc3[nH]ccc23)n(Cc2cc(F)cc(F)c2)cc1F` [Compound I-1022], the IC50 is less than 10 nM.
On the same count and under the same terms, next, `COc1cn(Cc2ccccc2)c(Nc2cc(N3CCOCC3)ccc2C)nc1=O` [Compound I-0740]: 100 to 500 nM; `COc1cc(C)c(Nc2nc(=O)c(OC)cn2Cc2cc(F)cc(F)c2)cc1F` [Compound I-0721]: less than 10 nM.
On to `COc1cc(C)c(Nc2nc(=O)c(C#N)cn2Cc2ccc(F)c(F)c2)cc1C` [Compound I-1160], for which the IC50 is less than 10 nM.
Same read-out and setting: next, `COc1cn(Cc2ccc(F)c(F)c2)c(Nc2cc(S(C)(=O)=O)cc(C)c2C)nc1=O` [Compound I-0756]: 10 to 100 nM; `CCOc1ccc(Nc2nc(=O)c(OC)cn2Cc2cc(F)c(F)c(F)c2)c(C)c1` [Compound I-0725]: less than 10 nM; `COc1cccc(Nc2nc(=O)c(OC)cn2Cc2ccc(F)cc2)c1C` [Compound I-0661]: less than 10 nM.
As to `COc1cn(Cc2ccc(C(F)(F)F)c(F)c2)c(Nc2cccc(Cl)c2C)nc1=O` [Compound I-0634], the 50% inhibitory concentration (IC50) lay in the range of 100 to 500 nM.
`COc1cn(Cc2ccc(F)c(F)c2)c(Nc2cc(N3CCCC3=O)ccc2C)nc1=O` [Compound I-0646]: the IC50 lay within 10 to 100 nM.
Same read-out and setting: next, `COc1cn(Cc2cc(F)c(F)c(F)c2)c(Nc2cc3sc(C(F)F)nc3cc2C)nc1=O` [Compound I-0934]: 10 to 100 nM; `COc1cn(Cc2cc(F)cc(Cl)c2)c(Nc2cc(OC(F)F)c(C)cc2C)nc1=O` [Compound I-0877]: 10 to 100 nM.
Take `COc1cc(C)c(Nc2nc(=O)c(OC)cn2Cc2cc(F)c(F)c(F)c2)cc1Cl` [Compound I-0763]: the IC50 was less than 10 nM.
On the same count and under the same terms, the result for `Cc1cc2[nH]ncc2cc1Nc1nc(=O)c(F)cn1Cc1ccc(F)c(F)c1` [Compound I-1095] reads 10 to 100 nM; that for `O=c1nc(Nc2cccc3c(O)cccc23)n(Cc2cc(F)cc(F)c2)cc1F` [Compound I-1114], less than 10 nM.
Consider `Cc1cc2[nH]ncc2cc1Nc1nc(=O)c(F)cn1Cc1cc(F)c(F)c(F)c1` [Compound I-1094], for which the IC50 was less than 10 nM.

As a reminder, the IC50 is the midpoint of a concentration-inhibition curve.
